Results: patent US8193364B2, “Insecticidal N-substituted (6-haloalkylpyridin-3-yl)-alkyl sulfoximines” (Dow AgroSciences, LLC., priority 2006, dated 2012)
Like-named read-outs stand apart in the source and are kept apart here.

How the values were obtained:
Format in all cases: in vivo
[1] = system: Green Peach Aphid (Myzus persicae); assay: Green peach aphid foliar spray assay on cabbage; settings: 72 h, read-out: % Control at ppm, foliar spray, green peach aphid on cabbage
Method: Cabbage seedlings grown in 3-inch pots, with 2-3 small (3-5 cm) true leaves, were used as test substrate. The seedlings were infested with 20-50 green peach aphids (wingless adult and nymph) 2-3 days prior to chemical application. Four seedlings were used for each treatment. Compounds (2 mg) were dissolved in 2 ml of acetone:methanol (1:1) solvent, forming stock solutions of 1000 ppm. The stock solutions were then diluted with a diluent consisting 80 parts of 0.025% Tween 20 in […] and 20 parts of acetone:methanol (1:1). A hand-held Devilbiss sprayer was used for spraying the test solutions to both sides of cabbage leaves until runoff. Reference plants (solvent check) were sprayed with the diluent only. Treated plants were held in a holding room for three days at approximately 23° C. and 40% RH prior to grading. Evaluation was conducted by counting the number of live aphids per plant under a microscope. Insecticidal activity was measured by using Abbott's correction formula: Corrected % Control=100*(X−Y)/X • where X=No. of live aphids on solvent check plants • Y=No. of live aphids on treated plants The Corrected % Control values from assays are given in Table 2.

[2] = system: Cotton Aphid (Aphis gossypii); assay: Cotton aphid foliar spray assay on squash; settings: 72 h, read-out: % Control of cotton aphid on squash (foliar spray)
Method: Squash with fully expanded cotyledon leaves were trimmed to one cotyledon per plant and infested with cotton aphid (wingless adult and nymph) 1 day prior to chemical application. Each plant was examined before chemical application to ensure proper infestation (ca. 30-70 aphids per plant). Compounds (2 mg) were dissolved in 2 ml of acetone:methanol (1:1) solvent, forming stock solutions of 1000 ppm. The stock solutions were then diluted with a diluent consisting 80 parts of 0.025% Tween 20 in H2O and 20 parts of acetone:methanol (1:1). A hand-held Devilbiss sprayer was used to apply the test solutions until runoff to both sides of the squash cotyledon leaves. Four plants (4 replications) were used for each concentration of each compound. Reference plants (solvent check) were sprayed with the diluent only. Treated plants were held in a holding room for 3 days at approximately 23° C. and 40% RH before the number of live aphids on each plant was recorded. Insecticidal activity was measured by Corrected % Control using Abbott's correction formula and presented in Table 1: Corrected % Control=100*(X−Y)/X • where X=No. of live aphids on solvent check plants • Y=No. of live aphids on treated plants

[3] = system: Brown Planthopper (Nilaparvata lugens); assay: Brown planthopper foliar spray assay on rice
Method: (§1) A foliar spray assay and a root-uptake systemic assay were performed on both brown planthopper and green leafhopper. Four-week-old rice seedlings were submerged in 3-cm depth of water in the bottom portion (high 5 cm, diameter 3 cm) of a 2-part glass cylinder (high 18 cm, diameter 3 cm). A metal screen was used to hold the seedlings within the bottom portion. Scotch tape was used to bind the two portions of the cylinder after setting up the seedlings. A metal cap was used to cover the cylinder. There were 4 cylinders for each treatment. The test compound was dissolved in acetone to make a 10,000 ppm stock solution. For the foliar spray assay, this stock solution was diluted with water to make 10, 2.5, 0.31, 0.08 and 0.02 ppm test solutions. A volume of 0.5 ml of a test solution or solvent blank as check was sprayed into the glass cylinder. For systemic test, the stock solution was incorporated at final test concentrations of 10, 2.5, 0.31, 0.08 and 0.02 ppm in the water in which rice seedlings were submerged. In both foliar spray and systemic tests, five laboratory-reared 3rd instar nymphs of brown planthopper or green leafhopper were introduced into each cylinder 3 hr after insecticide application. The treated test units were kept in a growth chamber with conditions set as followings: Temperature 28±0.5° C.; Relative humidity 70±0.5%; Photoperiod […].

[4] = system: Green Leafhopper (Nephotettix sp.); assay: Green leafhopper foliar spray assay on rice
Method: as §1

[5] = system: Brown Planthopper (Nilaparvata lugens); assay: Brown planthopper root-uptake systemic assay on rice
Method: as §1

[6] = system: Green Leafhopper (Nephotettix sp.); assay: Green leafhopper root-uptake systemic assay on rice
Method: as §1

In the case of `CC(c1ccc(C(F)F)nc1)S(C)(=O)=NC#N` (centres unmarked) [Compound 8, [1-(6-difluoromethylpyridin-3-yl)ethyl](methyl)-oxido-λ^4-sulfanylidenecyanamide], the pest or weed control at 0.195 ppm ([1]; 0.195 ppm, 3 days after spray) is reported as under 50%, the pest or weed control at 0.781 ppm ([1]; 0.781 ppm, 3 days after spray) is reported as under 50% and the pest or weed control at 3.125 ppm ([1]; 3.125 ppm, 3 days after spray) is reported as under 50%. It also gave a pest or weed control at 0.049 ppm ([2]; 0.049 ppm, 3 days after spray) of 70 to 79%, a pest or weed control at 0.195 ppm ([2]; 0.195 ppm, 3 days after spray) of 90 to 100% and a pest or weed control at 0.781 ppm ([2]; 0.781 ppm, 3 days after spray) of 90 to 100%. It also gave a pest or weed control at 3.13 ppm ([2]; 3.13 ppm, 3 days after spray) of 90 to 100%.
In the case of `CC(c1ccc(C(F)(F)C(F)(F)F)nc1)S(C)(=O)=NC#N` (centres unmarked) [Compound 9, [1-(6-pentafluoroethylpyridin-3-yl)ethyl](methyl)-oxido-λ^4-sulfanylidenecyanamide], the pest or weed control at 0.781 ppm ([2]; 0.781 ppm, 3 days after spray) is reported as 50 to 59% and the pest or weed control at 3.13 ppm ([2]; 3.13 ppm, 3 days after spray) is reported as 90 to 100%.
Compound `CC(c1ccc(C(F)(F)F)nc1)S(C)(=O)=N[N+](=O)[O-]` (centres unmarked) [Compound 11, 2-trifluoromethyl-5-(1-{methyl(oxido)[oxido(oxo)hydrazono]-λ^4-sulfanyl}ethyl)pyridine] has a pest or weed control at 0.195 ppm ([1]; 0.195 ppm, 3 days after spray) of 70 to 79%, a pest or weed control at 0.781 ppm ([1]; 0.781 ppm, 3 days after spray) of 80 to 89% and a pest or weed control at 3.125 ppm ([1]; 3.125 ppm, 3 days after spray) of 90 to 100%. For the same compound, the pest or weed control at 0.049 ppm ([2]; 0.049 ppm, 3 days after spray) was 60 to 69%, the pest or weed control at 0.195 ppm ([2]; 0.195 ppm, 3 days after spray) was 60 to 69% and the pest or weed control at 0.781 ppm ([2]; 0.781 ppm, 3 days after spray) was 90 to 100%. It also gave a pest or weed control at 3.13 ppm ([2]; 3.13 ppm, 3 days after spray) of 90 to 100%.
In the case of `CS(=O)(Cc1ccc(C(F)(F)F)nc1)=NC#N` (centres unmarked) [Compound 1, [(6-trifluoromethylpyridin-3-yl)methyl](methyl)-oxido-λ^4-sulfanylidenecyanamide], the pest or weed control at 0.781 ppm ([1]; 0.781 ppm, 3 days after spray) is reported as under 50%, the pest or weed control at 3.125 ppm ([1]; 3.125 ppm, 3 days after spray) is reported as 90 to 100% and the pest or weed control at 0.049 ppm ([2]; 0.049 ppm, 3 days after spray) is reported as 90 to 100%. The pest or weed control at 0.195 ppm ([2]; 0.195 ppm, 3 days after spray) was 90 to 100%, the pest or weed control at 0.781 ppm ([2]; 0.781 ppm, 3 days after spray) was 90 to 100% and the pest or weed control at 3.13 ppm ([2]; 3.13 ppm, 3 days after spray) was 90 to 100%.
For `CC(c1ccc(C(C)(F)F)nc1)S(C)(=O)=NC#N` (centres unmarked) [Compound 12], the pest or weed control at 0.781 ppm ([1]; 0.781 ppm, 3 days after spray) was 50 to 59%, the pest or weed control at 3.125 ppm ([1]; 3.125 ppm, 3 days after spray) was 80 to 89% and the pest or weed control at 0.781 ppm ([2]; 0.781 ppm, 3 days after spray) was 90 to 100%. It also gave a pest or weed control at 3.13 ppm ([2]; 3.13 ppm, 3 days after spray) of 90 to 100%.
`N#CN=S1(=O)CCCC1Cc1ccc(C(F)(F)F)nc1` (centres unmarked) [Compound 10, 2-[(6-trifluoromethylpyridin-3-yl)methyl]-1-oxidotetrahydro-1H-1λ^4-thien-1-ylidenecyanamide] was tested, and the pest or weed control at 0.781 ppm [2] was 60 to 69% and the pest or weed control at 3.13 ppm [2] was 70 to 79%.
In the case of `CS(=O)(Cc1ccc(C(F)F)nc1)=NC#N` (centres unmarked) [Compound 7, [(6-difluoromethylpyridin-3-yl)methyl](methyl)-oxido-λ^4-sulfanylidenecyanamide], the pest or weed control at 0.049 ppm ([2]; 0.049 ppm, 3 days after spray) is reported as under 50%, the pest or weed control at 0.195 ppm ([2]; 0.195 ppm, 3 days after spray) is reported as 80 to 89% and the pest or weed control at 0.781 ppm ([2]; 0.781 ppm, 3 days after spray) is reported as 90 to 100%. It also gave a pest or weed control at 3.13 ppm ([2]; 3.13 ppm, 3 days after spray) of 90 to 100%.
For `CC(c1ccc(C(F)(F)Cl)nc1)S(C)(=O)=NC#N` (centres unmarked) [Compound 4, (1-{6-[chloro(difluoro)methyl]pyridin-3-yl}ethyl)(methyl)-oxido-λ^4-sulfanylidenecyanamide], the “% Control at ppm against brown planthopper” value ([3]; 0.02 ppm) was “F (Less than 50)”, the “% Control at ppm against brown planthopper” value ([3]; 0.08 ppm) was “E (50-59)” and the “% Control at ppm against brown planthopper” value ([3]; 0.31 ppm) was “B (80-89)”. The “% Control at ppm against brown planthopper” value ([3]; 2.5 ppm) was “A (90-100)”, the “% Control at ppm against brown planthopper” value ([3]; 10 ppm) was “A (90-100)” and the pest or weed control at 0.195 ppm [1] was 80 to 89%. For the same compound, the pest or weed control at 0.781 ppm [1] was 90 to 100%, the pest or weed control at 3.125 ppm [1] was 90 to 100% and the pest or weed control at 0.049 ppm [2] was 90 to 100%. For the same compound, the pest or weed control at 0.195 ppm [2] was 90 to 100%, the pest or weed control at 0.781 ppm [2] was 90 to 100% and the pest or weed control at 3.13 ppm [2] was 90 to 100%. For the same compound, the “% Control at ppm against green leafhopper” value ([4]; 0.02 ppm) was “E (50-59)”, the “% Control at ppm against green leafhopper” value ([4]; 0.08 ppm) was “B (80-89)” and the “% Control at ppm against green leafhopper” value ([4]; 0.31 ppm) was “A (90-100)”. For the same compound, the “% Control at ppm against green leafhopper” value ([4]; 2.5 ppm) was “A (90-100)”, the “% Control at ppm against green leafhopper” value ([4]; 10 ppm) was “A (90-100)” and the “% Control at ppm against brown planthopper” value ([5]; 0.02 ppm in water) was “F (Less than 50)”. For the same compound, the “% Control at ppm against brown planthopper” value ([5]; 0.08 ppm in water) was “E (50-59)”, the “% Control at ppm against brown planthopper” value ([5]; 0.31 ppm in water) was “A (90-100)” and the “% Control at ppm against brown planthopper” value ([5]; 2.5 ppm in water) was “A (90-100)”. The “% Control at ppm against brown planthopper” value ([5]; 10 ppm in water) was “A (90-100)”, the “% Control at ppm against green leafhopper” value ([6]; 0.02 ppm in water) was “E (50-59)” and the “% Control at ppm against green leafhopper” value ([6]; 0.08 ppm in water) was “C (70-79)”. For the same compound, the “% Control at ppm against green leafhopper” value ([6]; 0.31 ppm in water) was “A (90-100)”, the “% Control at ppm against green leafhopper” value ([6]; 2.5 ppm in water) was “A (90-100)” and the “% Control at ppm against green leafhopper” value ([6]; 10 ppm in water) was “A (90-100)”.
For `CS(=O)(CCc1ccc(C(F)(F)F)nc1)=NC#N` (centres unmarked) [Compound 6, [2-(6-trifluoromethylpyridin-3-yl)ethyl](methyl)-oxido-λ^4-sulfanylidenecyanamide], the pest or weed control at 0.781 ppm ([2]; 0.781 ppm, 3 days after spray) was 80 to 89% and the pest or weed control at 3.13 ppm ([2]; 3.13 ppm, 3 days after spray) was 80 to 89%.
`CC(c1ccc(C(Cl)(Cl)Cl)nc1)S(C)(=O)=NC#N` (centres unmarked) [Compound 5, [1-(6-trichloromethylpyridin-3-yl)ethyl](methyl)-oxido-λ^4-sulfanylidenecyanamide] showed a pest or weed control at 0.781 ppm [1] of under 50%, a pest or weed control at 3.125 ppm [1] of 80 to 89% and a pest or weed control at 0.049 ppm [2] of 50 to 59%. For the same compound, the pest or weed control at 0.195 ppm [2] was 80 to 89%, the pest or weed control at 0.781 ppm [2] was 90 to 100% and the pest or weed control at 3.13 ppm [2] was 90 to 100%.
In the case of `N#CN=S1(=O)CCCC1c1ccc(C(F)(F)F)nc1` (centres unmarked) [Compound 3, 2-(6-trifluoromethylpyridin-3-yl)-1-oxidotetrahydro-1H-1λ^4-thien-1-ylidenecyanamide], the pest or weed control at 0.195 ppm ([1]; 0.195 ppm, 3 days after spray) is reported as under 50%, the pest or weed control at 0.781 ppm ([1]; 0.781 ppm, 3 days after spray) is reported as under 50% and the pest or weed control at 3.125 ppm ([1]; 3.125 ppm, 3 days after spray) is reported as 60 to 69%. The pest or weed control at 0.049 ppm ([2]; 0.049 ppm, 3 days after spray) was 90 to 100%, the pest or weed control at 0.195 ppm ([2]; 0.195 ppm, 3 days after spray) was 90 to 100% and the pest or weed control at 0.781 ppm ([2]; 0.781 ppm, 3 days after spray) was 90 to 100%. The pest or weed control at 3.13 ppm ([2]; 3.13 ppm, 3 days after spray) was 90 to 100%.
